These results are taken from patent US10246448B2, “4-hydroxy-2-phenyl-1,3-thiazol-5-yl methanone derivatives as TRPM8 antagonists” (DOMPÉ FARMACEUTICI S.P.A., priority 2015, dated 2019).

Series [1] addresses T1, human TRPM8 (Homo sapiens, UniProt Q7Z2W7). In words: In vitro TRPM8 assay: intracellular calcium levels, Ca2+ sensitive fluorescent dye (FLIPR), agonist Icilin or Cooling Agent 10. It is filed as cell-based. The arrangement: expressed in transfected cells. Particulars: HEK-293 cells stably expressing human TRPM8. The method, then:
The TRPM8 antagonistic activity of all 26 compounds was determined by measuring changes in intracellular calcium levels using a Ca^+2 sensitive fluorescent dye. The experiments were performed using HEK-293 cells stably expressing the human TRPM8. Cells were seeded 10000 cells/well in 384 plates coated by Poly-D-Lysine MATRIX black/clear bottom (Thermo Scientific, Waltham, Mass. USA) in complete medium and grown overnight at 37° C., 5% CO2. 24 h after seeding, cell culture media was removed, cells were washed with Tyrode's assay buffer and then loaded with the fluorescent Ca^+2 indicator Fluo-4 NW dye (Molecular Probes, Life Technologies, Paisley, UK) supplemented with water-soluble Probenecid (Molecular Probes). Dye loaded cell plates were incubated for 1 h at room temperature. The compounds or vehicle were added and the kinetic response was monitored by a fluorimetric imaging plate ([…]; Molecular Devices, Sunnyvale, Calif., USA) over a period of five minutes (300 seconds). A second injection 5 minutes later of the reference agonist Cooling Agent 10 or Icilin at EC80 concentration was performed. The signal of the emitted fluorescence was recorded during additional three minutes. Data were analyzed by Spotfire DecisionSite version 9.1.1. The bioactivity exerted by the compounds or vehicle was expressed as a percent inhibition and IC50 values were then calculated.
A general note: Calcium assays in cells follow changes in intracellular calcium, usually with a dye or a luminescent sensor.

Series [2] deals with T1, human TRPM8. The experiment in a line: In vitro cold stimulation assay.
Method: The TRPM8 antagonisticic activity of all 26 compounds was determined in an in vitro cold stimulation assay.
3-4 days after seeding (˜80% confluent cells), the medium was removed and cells were loaded by a solution of Screen Quest™ Fluo-8 NW dye (ABS Bioquest, Sunnyvale, Calif., USA) in the dark. Dye-loaded cell flasks were incubated for 45 minutes at room temperature in the dark and the Fluo-8 NW solution was then removed and cells were seeded in the 96 Assay Plates (MicroAmp™ Optical 96-Well Reaction Plates; Applied Biosystems, Life technologies) at 100,000 cells/'well (20 μl/well). […] All data point determinations were performed in duplicate before a mean value was calculated, including error bars representing the standard error of the mean.
Series [3] is described as follows: Metabolic stability in rat microsomes, Phase I assay. In kind it is in vitro ADME. Particulars: pH 7.4; rat liver microsomes 0.5 mg/ml, compound 1 μM, NADP cofactors mixture, 37° C.; read-out: Metabolic Stability (t1/2, min) Phase1. How it is done:
Compounds 1, 2, 8 and 9 in duplicate were dissolved in DMSO and pre-incubated, at the final concentration of 1 μM, for 10 min at 37° C. in potassium phosphate buffer 50 mM pH 7.4, 3 mM MgCl2, with rat liver microsomes (Xenotech) at the final concentration of 0.5 mg/ml.
After the pre-incubation period, reactions were started by adding the cofactors mixture (NADP, Glc6P, Glc6P-DH in 2% Sodium bicarbonte); samples (50 μl) were taken at time 0, 10, 20, 30 and 60 min added to 150 μl of acetonitrile with Verapamil 0.02 μM as Internal Standard (IS) to stop the reaction. After centrifugation the supernatants were analysed by LC-MS/MS.
A control sample without cofactors was added in order to check the stability of test compounds in the matrix after 60 min. 7-Ethoxycoumarin and propranolol were added as reference standards.
(Microsomes from liver hold many membrane-bound enzymes, among them those of drug oxidation.)

Series [4] is described as follows: Metabolic stability in rat microsomes, Phase II assay. It is filed as in vitro ADME. Particulars: pH 7.4; rat liver microsomes 0.5 mg/mL, Alamethicin activated, UDPGA, compound 1 μM, 37° C.; read-out: Metabolic Stability (t1/2, min) Phase2. The method, then: Rat liver microsomes (0.5 mg/mL final conc.) were incubated in ice for 15 min in 50 mM potassium phosphate buffer pH 7.4, 3 mM MgCl2 and activated with Alamethicin 50 μg/mg microsomal protein. Samples were transferred at 37° C. and compounds 1, 2, 8 and 9, dissolved in DMSO, were added in duplicate at the final concentration of 1 μM. After 5 min, reaction is started by adding 25 μl of UDPGA (16.15 mg/ml in 0.2% Sodium Bicarbonate). Samples were taken at time 0, 10, 20, 30 and 60 min added to 150 μl of acetonitrile with Verapamil 0.02 uM as Internal Standard (IS) to stop the reaction. After centrifugation the supernatants were analysed by LC-MS/MS. 7-Hydroxycoumarin was added as reference standard.

[5] abbreviates: agonist Cooling Agent 10 at EC80, read-out: Ca2+ (IC50 μM) Cool 10.
Setting [6] is: agonist Icilin at EC80, read-out: Ca2+ (IC50 μM) Icilin.

T1 sequence (Q7Z2W7 whole entry): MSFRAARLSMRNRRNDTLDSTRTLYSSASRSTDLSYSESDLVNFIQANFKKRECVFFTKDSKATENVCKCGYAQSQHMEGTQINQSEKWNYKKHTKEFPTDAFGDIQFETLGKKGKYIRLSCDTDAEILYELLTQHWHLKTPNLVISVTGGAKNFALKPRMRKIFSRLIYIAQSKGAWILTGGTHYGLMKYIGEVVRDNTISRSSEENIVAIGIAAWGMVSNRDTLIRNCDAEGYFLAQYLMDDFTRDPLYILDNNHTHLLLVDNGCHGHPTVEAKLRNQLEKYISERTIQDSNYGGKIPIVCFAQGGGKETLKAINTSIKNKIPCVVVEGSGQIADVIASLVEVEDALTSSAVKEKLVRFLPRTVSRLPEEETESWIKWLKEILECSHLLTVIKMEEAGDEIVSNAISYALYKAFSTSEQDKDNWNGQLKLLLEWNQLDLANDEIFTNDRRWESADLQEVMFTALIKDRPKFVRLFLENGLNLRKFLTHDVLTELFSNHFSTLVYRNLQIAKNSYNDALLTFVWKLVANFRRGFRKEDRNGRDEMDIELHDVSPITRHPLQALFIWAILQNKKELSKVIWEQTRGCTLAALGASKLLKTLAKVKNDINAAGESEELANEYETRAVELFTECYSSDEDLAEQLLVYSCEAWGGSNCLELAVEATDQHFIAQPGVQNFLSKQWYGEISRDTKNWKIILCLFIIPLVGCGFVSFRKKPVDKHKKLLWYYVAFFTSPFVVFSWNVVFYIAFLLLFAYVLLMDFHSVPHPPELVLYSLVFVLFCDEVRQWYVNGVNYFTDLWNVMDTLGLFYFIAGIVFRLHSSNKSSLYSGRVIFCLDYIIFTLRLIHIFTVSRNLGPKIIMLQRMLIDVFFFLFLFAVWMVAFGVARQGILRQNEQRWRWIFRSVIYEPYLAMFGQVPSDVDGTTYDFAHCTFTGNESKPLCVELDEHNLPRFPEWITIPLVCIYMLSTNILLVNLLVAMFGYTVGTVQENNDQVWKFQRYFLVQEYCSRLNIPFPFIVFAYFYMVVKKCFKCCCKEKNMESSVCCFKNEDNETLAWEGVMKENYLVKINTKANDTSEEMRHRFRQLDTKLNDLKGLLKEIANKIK

`O=C(c1sc(-c2cccc(F)c2)nc1O)n1ccnc1` [Example 25, [2-(3-fluorophenyl)-4-hydroxy-1,3-thiazol-5-yl](1H-imidazol-1-yl)methanone]: the values for the half-inhibitory concentration (IC50) at human TRPM8 [1] (setting [5]), on human TRPM8 [1] (setting [6]) and at human TRPM8 [2] were 1.25 µM, 1.25 µM and 972 nM, respectively. In addition, the half-life at 1 μM worked out at 45 min in series [3] and 40 min in series [4].

For `O=C(c1sc(-c2cccc(F)c2)nc1O)N1CCCOC1` [Example 10, [2-(3-fluorophenyl)-4-hydroxy-1,3-thiazol-5-yl](1,3-oxazinan-3-yl)methanone], the 50% inhibitory concentration (IC50) on human TRPM8 [1] (setting [5]) came to 0.256 µM; on human TRPM8 [1] (setting [6]), 0.231 µM; at human TRPM8 [2], 102 nM. The half-life at 1 μM came out at 55 min in series [3] and 46 min in series [4].

With `O=C(c1sc(-c2ccccc2O)nc1O)N1CCOCC1` [Example 13, [4-hydroxy-2-(2-hydroxyphenyl)-1,3-thiazol-5-yl](morpholin-4-yl)methanone], the results for the concentration for half-maximal inhibition (IC50) at human TRPM8 [1] (setting [5]), on human TRPM8 [1] (setting [6]) and at human TRPM8 [2] were 1.12 µM, 1.22 µM and 752 nM, respectively. The half-life at 1 μM in series [3] came to 78 min; in series [4], 36 min.

In the case of `O=C(c1cccnc1)c1sc(-c2cccc(F)c2)nc1O` [Example 23, [2-(3-fluorophenyl)-4-hydroxy-1,3-thiazol-5-yl](pyridin-3-yl)methanone], the IC50 is 0.621 µM on human TRPM8 [1] (setting [5]), 0.695 µM on human TRPM8 [1] (setting [6]) and 578 nM against human TRPM8 [2]. Also, the half-life at 1 μM in series [3] is 52 min; in series [4], 51 min.

As to `CN1CCCC1C(=O)c1sc(-c2cccc(F)c2)nc1O` (centres unmarked) [Example 16, [2-(3-fluorophenyl)-4-hydroxy-1,3-thiazol-5-yl](1-methylpyrrolidin-2-yl)methanone], the results for the 50% inhibitory concentration (IC50) at human TRPM8 [1] (setting [5]), at human TRPM8 [1] (setting [6]) and against human TRPM8 [2] were 1.34 µM, 1.36 µM and 1010 nM, respectively. Besides, the half-life at 1 μM stood at 32 min in series [3] and 34 min in series [4].

As for `O=C(c1cccs1)c1sc(-c2cccc(F)c2)nc1O` [Example 20, [2-(3-fluorophenyl)-4-hydroxy-1,3-thiazol-5-yl](thiophen-2-yl)methanone], the IC50 at human TRPM8 [1] (setting [5]) was 0.96 µM; at human TRPM8 [1] (setting [6]), 1.11 µM; at human TRPM8 [2], 1380 nM. In addition, the results for the half-life at 1 μM in series [3] and in series [4] were 68 min and 59 min, respectively.

For the compound `Cn1nnnc1C(=O)c1sc(-c2cccc(F)c2)nc1O` [Example 32, [2-(3-fluorophenyl)-4-hydroxy-1,3-thiazol-5-yl](1-methyl-1H-tetrazol-5-yl)methanone], the half-maximal inhibitory concentration (IC50) turned out to be 0.098 µM on human TRPM8 [1] (setting [5]), 0.101 µM at human TRPM8 [1] (setting [6]) and 63 nM at human TRPM8 [2]. The half-life at 1 μM amounted to 81 min in series [3] and 69 min in series [4].

As to `O=C(c1sc(-c2ccccc2O)nc1O)N1CCOC1` [Example 4, [4-hydroxy-2-(2-hydroxyphenyl)-1,3-thiazol-5-yl](1,3-oxazolidin-3-yl)methanone], the 50% inhibitory concentration (IC50) was found to be 0.104 µM at human TRPM8 [1] (setting [5]), 0.122 µM on human TRPM8 [1] (setting [6]) and 39 nM against human TRPM8 [2]. For the same compound, the half-life at 1 μM in series [3] worked out at 64 min; in series [4], 41 min.

`O=C(c1ccco1)c1sc(-c2cccc(F)c2)nc1O` [Example 19, [2-(3-fluorophenyl)-4-hydroxy-1,3-thiazol-5-yl](furan-2-yl)methanone]: the IC50 on human TRPM8 [1] (setting [5]) stood at 1.17 µM; at human TRPM8 [1] (setting [6]) it was 1.15 µM; against human TRPM8 [2], 1780 nM. Also, the half-life at 1 μM was 42 min in series [3] and 21 min in series [4].

As to `O=C(c1sc(-c2cccc(F)c2)nc1O)C1CCCN1` (centres unmarked) [Example 15, [2-(3-fluorophenyl)-4-hydroxy-1,3-thiazol-5-yl](pyrrolidin-2-yl)methanone], the IC50 on human TRPM8 [1] (setting [5]) is 1.56 µM; at human TRPM8 [1] (setting [6]) it was 1.23 µM; against human TRPM8 [2], 1310 nM. The values for the half-life at 1 μM in series [3] and in series [4] were 65 min and 54 min, respectively.

The term IC50 denotes the concentration needed to halve the response being measured.
